# Test results from patent US8288342B2, “Methods for treating vasomotor symptoms in castrated prostatic cancer patients with low dose cyproterone acetate” (priority 2008, dated 2012).
# Assays:
# [1] = tested on: quality of life of prostate cancer patients; details: 367 evaluable patients; oral and i.m., doses varied; cited from earlier work
# [2] = tested on: hot flashes and outbreaks of sweating after orchiectomy; details: CPA 150 mg daily, cited from earlier work
# [3] = Same Phase 2 trial: adverse events and discontinuation; type: in vivo, human
# Source text: The overall study duration for each subject was approximately 19 weeks, which included a screening period of up to 4 weeks, a one-week placebo run-in period, a 12-week double-blind period, and a follow-up telephone call two weeks after the last dose of study medication.
# After providing informed consent on the first day of the screening period, all subjects had medical and hot flash history recorded, a physical examination, a chest x-ray and Doppler to assess known thromboembolic risk factors, an ECG to evaluate cardiac risks, and clinical laboratory evaluations. Once all results of tests conducted during the screening period were obtained, subjects who met all of the inclusion criteria and none of the exclusion criteria were eligible to enter the one-week, single-blind, placebo run-in period. […] After beginning study medication, subjects returned for study visits at weeks 2, 4, 8, and 12. Two weeks after the final treatment visit, a telephone follow-up call was conducted to record and evaluate adverse events (“AE”s) since the last study visit.
# [4] = Same Phase 2 trial: cyproterone acetate and 15β-OH cyproterone acetate concentrations by treatment and visit; type: in vivo, human; details: 5 mg/day, 15 mg/day and 25 mg/day
# Procedure: FIG. 3 depicts schematically the analysis of cyproterone acetate and 15β-OH cyproterone acetate (a breakdown product of cyproterone acetate that contributes to the effectiveness of the drug) concentration in the patients who were treated.
structure (smiles),measurement,setting,value
"CC(=O)O[C@]1(C(C)=O)CC[C@H]2[C@@H]3C=C(Cl)C4=CC(=O)[C@@H]5C[C@@H]5[C@]4(C)[C@H]3CC[C@@]21C [CPA, cyproterone acetate]",Evaluable patients with general improvement in subjective assessment of quality of life,[1],70%
same,Frequency and severity in subjects who continued to experience hot flashes or sweating,[2],decreased
same,Subjects with outbreaks of sweating,[2]; placebo 47%,24%
same,Subjects experiencing hot flashes,[2]; placebo 61%,33%
same,"12-week double-blind discontinuation due to Adverse Event, number",[3]; CPA 5 mg (N = 81),2
same,12-week double-blind discontinuation rate due to Adverse Event,[3]; CPA 5 mg (N = 81),(2.5%)
same,"Treatment-emergent AE Constipation, %",[3]; CPA 5 mg (N = 81),0.00%
same,"Treatment-emergent AE Depression, %",[3]; CPA 5 mg (N = 81),1.23%
same,"Treatment-emergent AE Diarrhoea, %",[3]; CPA 5 mg (N = 81),2.47%
same,"Treatment-emergent AE Dizziness, %",[3]; CPA 5 mg (N = 81),2.47%
same,"Treatment-emergent AE Dyspnoea, %",[3]; CPA 5 mg (N = 81),3.70%
same,"Treatment-emergent AE Fatigue, %",[3]; CPA 5 mg (N = 81),1.23%
same,"Treatment-emergent AE Headache, %",[3]; CPA 5 mg (N = 81),3.70%
same,"Treatment-emergent AE Influenza, %",[3]; CPA 5 mg (N = 81),0.00%
same,"Treatment-emergent AE Nasopharyngitis, %",[3]; CPA 5 mg (N = 81),3.70%
same,"Treatment-emergent AE Nausea, %",[3]; CPA 5 mg (N = 81),0.00%
same,"Treatment-emergent AE Oedema peripheral, %",[3]; CPA 5 mg (N = 81),1.23%
same,"Treatment-emergent AE Pain in extremity, %",[3]; CPA 5 mg (N = 81),3.70%
same,"Treatment-emergent AE Urinary tract infection, %",[3]; CPA 5 mg (N = 81),1.23%
same,"Treatment-emergent AE Vomiting, %",[3]; CPA 5 mg (N = 81),1.23%
same,"Treatment-related AE Constipation, %",[3]; CPA 5 mg (N = 81),0.00%
same,"Treatment-related AE Dyspnoea, %",[3]; CPA 5 mg (N = 81),0.00%
same,"Proportion of subjects experiencing treatment-emergent AEs, rank among groups","[3]; CPA 5 mg/day vs placebo, 15 and 25 mg/day",fewest proportion of subjects
same,"12-week double-blind discontinuation due to Adverse Event, number",[3]; CPA 15 mg (N = 99),5
same,12-week double-blind discontinuation rate due to Adverse Event,[3]; CPA 15 mg (N = 99),(5.1%)
same,"Treatment-emergent AE Constipation, %",[3]; CPA 15 mg (N = 99),6.06%
same,"Treatment-emergent AE Depression, %",[3]; CPA 15 mg (N = 99),4.04%
same,"Treatment-emergent AE Diarrhoea, %",[3]; CPA 15 mg (N = 99),6.06%
same,"Treatment-emergent AE Dizziness, %",[3]; CPA 15 mg (N = 99),7.07%
same,"Treatment-emergent AE Dyspnoea, %",[3]; CPA 15 mg (N = 99),7.07%
same,"Treatment-emergent AE Fatigue, %",[3]; CPA 15 mg (N = 99),6.06%
same,"Treatment-emergent AE Gynaecomastia, %",[3]; CPA 15 mg (N = 99),2.02%
same,"Treatment-emergent AE Headache, %",[3]; CPA 15 mg (N = 99),2.02%
same,"Treatment-emergent AE Influenza, %",[3]; CPA 15 mg (N = 99),1.01%
same,"Treatment-emergent AE Nasopharyngitis, %",[3]; CPA 15 mg (N = 99),3.03%
same,"Treatment-emergent AE Nausea, %",[3]; CPA 15 mg (N = 99),2.02%
same,"Treatment-emergent AE Oedema peripheral, %",[3]; CPA 15 mg (N = 99),1.01%
same,"Treatment-emergent AE Pain in extremity, %",[3]; CPA 15 mg (N = 99),3.03%
same,"Treatment-emergent AE Urinary tract infection, %",[3]; CPA 15 mg (N = 99),0.00%
same,"Treatment-emergent AE Vomiting, %",[3]; CPA 15 mg (N = 99),0.00%
same,"Treatment-related AE Constipation, %",[3]; CPA 15 mg (N = 99),2.02%
same,"Treatment-related AE Dyspnoea, %",[3]; CPA 15 mg (N = 99),4.04%
same,"12-week double-blind discontinuation due to Adverse Event, number",[3]; CPA 25 mg (N = 87),7
same,12-week double-blind discontinuation rate due to Adverse Event,[3]; CPA 25 mg (N = 87),(8.0%)
same,"Treatment-emergent AE Constipation, %",[3]; CPA 25 mg (N = 87),3.45%
same,"Treatment-emergent AE Depression, %",[3]; CPA 25 mg (N = 87),1.15%
same,"Treatment-emergent AE Diarrhoea, %",[3]; CPA 25 mg (N = 87),3.45%
same,"Treatment-emergent AE Dizziness, %",[3]; CPA 25 mg (N = 87),4.60%
same,"Treatment-emergent AE Dyspnoea, %",[3]; CPA 25 mg (N = 87),8.05%
same,"Treatment-emergent AE Fatigue, %",[3]; CPA 25 mg (N = 87),1.15%
same,"Treatment-emergent AE Gynaecomastia, %",[3]; CPA 25 mg (N = 87),4.60%
same,"Treatment-emergent AE Headache, %",[3]; CPA 25 mg (N = 87),3.45%
same,"Treatment-emergent AE Influenza, %",[3]; CPA 25 mg (N = 87),3.45%
same,"Treatment-emergent AE Nasopharyngitis, %",[3]; CPA 25 mg (N = 87),5.75%
same,"Treatment-emergent AE Nausea, %",[3]; CPA 25 mg (N = 87),2.30%
same,"Treatment-emergent AE Oedema peripheral, %",[3]; CPA 25 mg (N = 87),5.75%
same,"Treatment-emergent AE Pain in extremity, %",[3]; CPA 25 mg (N = 87),0.00%
same,"Treatment-emergent AE Urinary tract infection, %",[3]; CPA 25 mg (N = 87),3.45%
same,"Treatment-emergent AE Vomiting, %",[3]; CPA 25 mg (N = 87),2.30%
same,"Treatment-related AE Constipation, %",[3]; CPA 25 mg (N = 87),3.45%
same,"Treatment-related AE Dyspnoea, %",[3]; CPA 25 mg (N = 87),4.60%
same,Cyproterone acetate and 15β-OH cyproterone acetate concentration in treated patients,[4],dose proportional response
